Where a name gives a salt, the structure may show the parent alone.
Tests used:
[1] = Particle size determination by laser diffraction (MALVERN Mastersizer 2000); assay type: physicochemical; conditions: for <63 μm (fraction of particles by volume smaller than specified diameter) / <150 μm (fraction of particles by volume smaller than specified diameter) / Mean particle size: hydrochloride dihydrate
Procedure: Particle Size Determination by Laser Diffraction
The particle size of the obtained ondansetron hydrochloride dihydrate particles was determined as set forth above (See Methodology and Protocols). The mean particle size and particle size distribution of the particles (fraction of particles by volume smaller than specified diameter) are presented in the following table.

[2] = particles from the '578 patent process (cooling isopropanol/water solution); cited from earlier work
[3] = Drying: 40° C., eight (8) hours, 25° C., two (2) days
[4] = Drying: Ambient conditions, six (6) hours
[5] = Drying: None (i.e., wet particles after filtration)

SMILES	<250 μm (fraction of particles by volume smaller than specified diameter) ([1]; dried particles)	<63 μm (fraction of particles by volume smaller than specified diameter) ([1]; dried particles)	<150 μm (fraction of particles by volume smaller than specified diameter) ([1]; dried particles)	Mean particle size ([1]; dried particles)	further results
Cc1nccn1CC1CCc2c(c3ccccc3n2C)C1=O (single isomer, unassigned) [Example 5, ondansetron hydrochloride dihydrate]	100%	26%	85%	89 μm	–
Cc1nccn1CC1CCc2c(c3ccccc3n2C)C1=O (stereo not shown) [ondansetron hydrochloride dihydrate]	–	–	–	–	Fraction of particles smaller than 250 μm [2]: less than 60%
Cc1nccn1CC1CCc2c(c3ccccc3n2C)C1=O (single isomer, unassigned) [Example 4, ondansetron hydrochloride dihydrate]	100%	12%	85%	81 μm	–
Cc1nccn1CC1CCc2c(c3ccccc3n2C)C1=O (single isomer, unassigned) [Example 1, ondansetron hydrochloride dihydrate]	100%	–	90%	96 μm	<60 μm (fraction of particles by volume smaller than specified diameter) ([1]; dried particles): 19%
Cc1nccn1CC1CCc2c(c3ccccc3n2C)C1=O (stereo not shown) [Example 6, ondansetron hydrochloride dihydrate]	–	–	–	–	<60 μm [1, 3]: 15%; <350 μm [1, 3]: 100%; <60 μm ([1]; Drying: 40° C., four (4) hours): 28%; <280 μm ([1]; Drying: 40° C., four (4) hours): 100%; <60 μm ([1]; Drying: 40° C., two (2) hours): 35%; <290 μm ([1]; Drying: 40° C., two (2) hours): 100%; <60 μm [1, 4]: 28%; <280 μm [1, 4]: 100%; <60 μm [1, 5]: 31%; <280 μm [1, 5]: 100%
Cc1nccn1CC1CCc2c(c3ccccc3n2C)C1=O (single isomer, unassigned) [Example 3, ondansetron hydrochloride dihydrate]	100%	34%	85%	81 μm	–
Cc1nccn1CC1CCc2c(c3ccccc3n2C)C1=O (single isomer, unassigned) [Example 2, ondansetron hydrochloride dihydrate]	100%	31%	90%	81 μm	–
